Experimental data taken from PubChem BioAssay (NCI).
“And” between values parts separate entries of the source, which are not always exact repeats. Equal values may be shown once.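 Step 1: Grow cells in 96-well plates. Step 2: Expose to compound for 48 hours at 5 concentrations. Step 3: Interpolate endpoints linearly; if unreached, use highest concentration. GI50 is the concentration that inhibits growth by half. The concentration for full growth arrest is given as TGI.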

Tests used:
Experiment in all cases: NCI tumour cell line growth inhibition, 48 h
UACC-257 melanoma = test system: UACC-257 melanoma
MALME-3M melanoma = test system: MALME-3M melanoma
SNB-75 CNS = test system: SNB-75 CNS
IGROV1 ovarian = test system: IGROV1 ovarian
RPMI-8226 leukemia = test system: RPMI-8226 leukemia
ACHN renal = test system: ACHN renal
CAKI-1 renal = test system: CAKI-1 renal
SK-MEL-2 melanoma = test system: SK-MEL-2 melanoma
UO-31 renal = test system: UO-31 renal
HCC-2998 colon = test system: HCC-2998 colon

Structure (SMILES) | GI50 (UACC-257 melanoma) | TGI (UACC-257 melanoma) | GI50 (MALME-3M melanoma) | TGI (MALME-3M melanoma) | GI50 (SNB-75 CNS) | TGI (SNB-75 CNS) | GI50 (IGROV1 ovarian) | TGI (IGROV1 ovarian) | GI50 (RPMI-8226 leukemia) | TGI (RPMI-8226 leukemia) | GI50 (ACHN renal) | TGI (ACHN renal) | GI50 (CAKI-1 renal) | TGI (CAKI-1 renal) | GI50 (SK-MEL-2 melanoma) | TGI (SK-MEL-2 melanoma) | GI50 (UO-31 renal) | TGI (UO-31 renal) | GI50 (HCC-2998 colon) | TGI (HCC-2998 colon)
CN1CCN(c2ccc(C(=O)Nc3n[nH]c4ccc(Cc5cc(F)cc(F)c5)cc34)c(NC3CCOCC3)c2)CC1 | 3.72 µM and 1.42 µM | > 10 µM and 2.82 µM | 1.5 µM | 3.01 µM | 1.05 µM | 2.36 µM | 0.641 µM and 1.3 µM | 3 µM and 2.72 µM | 2.3 µM and 1.86 µM | 7.02 µM and 4.39 µM | 2.25 µM and 1.42 µM | > 10 µM and 2.8 µM | 8.53 µM and 1.56 µM | > 10 µM and 3.07 µM | 4.5 µM and 1.86 µM | > 10 µM and 3.53 µM | 1.03 µM and 1.17 µM | 2.28 µM and 2.61 µM | 1.49 µM and 1.59 µM | 3 µM and 3.18 µM
COc1ccc(Cn2c(C)nc3c2C(=O)c2ccccc2C3=O)cc1 | – | 24.7 µM | – | 19 µM | – | 71.9 µM | – | 38.6 µM | – | – | – | 48.9 µM | – | – | – | 29.8 µM | – | 57.4 µM | – | > 75 µM
[O-]/[N+](=C\c1ccccc1)[C@H](COCc1ccccc1)c1ccccc1 | – | > 100 µM | – | > 100 µM | – | > 100 µM | – | > 100 µM | – | > 100 µM | – | > 100 µM | – | – | – | > 100 µM | – | > 100 µM | – | > 100 µM
O=C(O)c1ccccc1Cc1ccco1 | – | > 100 µM | – | > 100 µM | – | > 100 µM | – | > 100 µM | – | > 100 µM | – | > 100 µM | – | > 100 µM | – | > 100 µM | – | > 100 µM | – | > 100 µM
N#Cc1cc(C#N)c(Cl)nc1N | – | – | – | > 10 µM | – | > 10 µM | – | > 10 µM | – | > 10 µM | – | > 10 µM | – | – | – | > 10 µM | – | > 10 µM | – | > 10 µM
C(=Nc1ccccc1)C1CCCC[N-]1.C(=Nc1ccccc1)C1CCCC[N-]1.[Cu+2].[O-][Cl+3]([O-])([O-])O (stereo unspecified) | > 37.7 µM | > 55.2 µM | 14 µM | 33.9 µM | 23.6 µM | 59 µM | 14 µM | 47.8 µM | 3.52 µM | 10.9 µM | 1.45 µM | 12.3 µM | 3.96 µM | 16.6 µM | 15.8 µM | 40.9 µM | 12.6 µM | > 94.3 µM | 2.4 µM | 24.4 µM
CO[C@H](C(=O)[C@@H](O)[C@@H](C)O)[C@@H]1Cc2cc3cc(O[C@H]4C[C@@H](O[C@H]5C[C@@H](O)[C@H](O)C(C)O5)[C@H](O)C(C)O4)c(C)c(O)c3c(O)c2C(=O)[C@H]1O[C@H]1C[C@@H](O[C@H]2C[C@@H](O[C@H]3C[C@@H](OC)[C@H](O)C(C)O3)[C@@H](O)C(C)O2)C(O)(O)C(C)O1 (stereo partly specified) | 0.0371 µM | 0.511 µM | 0.0532 µM | 2.03 µM | 0.148 µM | 3.53 µM | 0.116 µM | > 25 µM | 0.182 µM | > 11.4 µM | 0.191 µM | > 25 µM | 2.89 µM | > 17.3 µM | 0.0551 µM | 0.592 µM | 0.209 µM | 2.84 µM | 0.47 µM | 5.09 µM
CCOc1ccc(NC(=O)CC2SC(=Nc3ccc(Cl)cc3)NC2=O)cc1 (stereo unspecified) | – | > 100 µM | – | > 100 µM | – | > 100 µM | – | > 100 µM | – | > 100 µM | – | > 100 µM | – | 48.8 µM | – | > 100 µM | – | > 100 µM | – | > 100 µM
COc1cc(-c2nn3c(/C=C4/C(=O)Nc5ccccc54)c(-c4ccc(C)cc4)nc3s2)cc(OC)c1OC | – | – | 0.765 µM | 4.78 µM | 0.552 µM | 10.7 µM | 4.75 µM | > 100 µM | – | – | 4.98 µM | 23.7 µM | 15.4 µM | > 100 µM | 16.3 µM | 30.9 µM | 8.44 µM | > 100 µM | > 100 µM | > 100 µM
CCOc1ccc2nc(NC(=O)C(=O)C(C(=O)c3ccccc3-c3ccccc3)C3OC(=O)c4ccccc43)sc2c1 (stereo unspecified) | – | > 96 µM | – | 34.8 µM | – | 61.6 µM | – | > 68 µM | – | 52.4 µM | – | > 100 µM | – | 53.2 µM | – | 60.1 µM | – | 52.8 µM | – | 33.1 µM
Cc1cc(C)nc(NC(N)=NCCc2ccccc2)n1 | 2.64 µM | 39.4 µM | 2.23 µM | 10.5 µM | 2.08 µM | 9.75 µM | – | – | 6.45 µM | > 100 µM | 4.94 µM | > 100 µM | 19.4 µM | 97.5 µM | 12.6 µM | > 100 µM | 5.54 µM | 50.8 µM | 8.41 µM | 30.6 µM
Cc1nc2ccc(CN(C)c3ccc(C(=O)N[C@@H](CCC(=O)O)C(=O)O)s3)cc2c(=O)[nH]1 | – | > 100 µM | – | > 100 µM | – | > 100 µM | – | > 100 µM | – | > 100 µM | – | > 100 µM | – | > 100 µM | – | > 100 µM | < 0.01 µM | > 100 µM | < 0.01 µM | > 100 µM
CNC(=O)c1cc(COc2nnc(Nc3ccc(Cl)cc3)c3ccoc23)ccn1 | 6.3 µM and > 10 µM | 35.6 µM and > 10 µM | 4.11 µM and > 10 µM | 17.2 µM and > 10 µM | 0.769 µM and 2.78 µM | 4.71 µM and > 10 µM | 11.4 µM and > 10 µM | 27.4 µM and > 10 µM | 19.4 µM and > 10 µM | > 82.7 µM | 3.86 µM and 7.18 µM | 15.4 µM and > 10 µM | 3.46 µM and > 10 µM | 19.7 µM and > 10 µM | 6.71 µM and > 10 µM | 21 µM and > 10 µM | 3.3 µM and 4.57 µM | 15 µM and > 10 µM | 17 µM and > 10 µM | 52.7 µM and > 10 µM
O=C(CC1=Nc2nnc(-c3nnc4n3C(=O)C(CC(=O)c3cccnc3)=N4)n2C1=O)c1cccnc1 | – | > 100 µM | – | > 100 µM | – | > 100 µM | – | > 100 µM | – | > 100 µM | – | > 100 µM | – | > 100 µM | – | > 100 µM | – | > 100 µM | – | > 100 µM
COC(=O)[C@@H](NC(=O)NC(=O)NC(=O)CI)C(C)C | 13.6 µM | 27.8 µM | 1.63 µM | 3.64 µM | 13.2 µM | 26.8 µM | 3.87 µM | 13.9 µM | 4.83 µM | 26.1 µM | 1.81 µM | 3.47 µM | 1.41 µM | 2.73 µM | 18.9 µM | 36.5 µM | 1.67 µM | 3.2 µM | 13.4 µM | 27.4 µM
